# In patent publication US8362000B2, “Azetidinyl diamides as monoacylglycerol lipase inhibitors” (Janssen Pharmaceutica NV, priority 2009, dated 2013):
# Target: T1, MGL (Rattus norvegicus, UniProt Q8R431)
# T1 construct: one g rat brain was homogenized using a Polytron homogenizer; from tissue; host or cells: rat brain homogenate
# T1 sequence (Q8R431 1-303): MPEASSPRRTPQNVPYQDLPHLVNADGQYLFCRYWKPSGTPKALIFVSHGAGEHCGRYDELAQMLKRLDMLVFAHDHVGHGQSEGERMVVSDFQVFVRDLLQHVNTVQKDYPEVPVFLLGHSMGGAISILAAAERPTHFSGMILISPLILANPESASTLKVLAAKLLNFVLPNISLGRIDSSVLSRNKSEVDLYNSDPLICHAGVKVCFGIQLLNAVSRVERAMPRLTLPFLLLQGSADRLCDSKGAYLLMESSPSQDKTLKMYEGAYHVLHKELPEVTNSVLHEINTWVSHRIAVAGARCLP
# Experiment: 2-AG accumulation assay in rat brain homogenate
# Format: biochemical
# Settings: rat brain homogenate; compound 1 μM; 2-AG accumulation as percent of vehicle
row,Rat Brain 2AG % VehCntrl (%) @ 1 μM [%],SMILES
1,284,Cc1c(C(=O)N2CC(N3CCN(C(=O)c4ccns4)CC3)C2)sc2cc(C(F)(F)F)ccc12 [Cpd 692]

# Same assay, conditions: rat brain homogenate; compound 1 μM; 2-AG accumulation as percent of vehicle; read-out: Rat Brain 2AG % VehCntrl (%) @ 1 μM
row,"2-AG accumulation, % of vehicle control at 1 µM [%]",SMILES
1,259,"O=C(c1cscn1)N1CCN(C2CN(C(=O)c3cc4c(C(F)(F)F)cccc4s3)C2)CC1 [Cpd 334, 1-(1,3-Thiazol-4-ylcarbonyl)-4-(1-{[4-(trifluoromethyl)-1-benzothiophen-2-yl]carbonyl}azetidin-3-yl)piperazine]"
2,223,O=C(c1ccccc1)N1CCN(C2CN(C(=O)c3sc4cc(C(F)(F)F)ccc4c3Cl)C2)CC1 [Cpd 336]
3,971,"O=C(c1ccc2c(c1)CCCN2C(=O)c1ccc(C(F)(F)F)cc1)N1CC(N2CCN(C(=O)c3nccs3)CC2)C1 [Cpd 365, 6-({3-[4-(1,3-Thiazol-2-ylcarbonyl)piperazin-1-yl]azetidin-1-yl}carbonyl)-1-(4-trifluoromethylbenzoyl)-1,2,3,4-tetrahydroquinoline]"
4,703,O=C(c1ccc(Sc2cccc(C(F)(F)F)c2)cc1)N1CC(N2CCN(C(=O)c3nccs3)CC2)C1 [Cpd 431]
5,159,"O=C(c1ccccc1)N1CCN(C2CN(C(=O)c3ccc(S(=O)(=O)c4cccc(Cl)c4)cc3)C2)CC1 [Cpd 433, 1-[1-({4-[(3-Chlorophenyl)sulfonyl]phenyl}carbonyl)azetidin-3-yl]-4-(phenylcarbonyl)piperazine]"
6,265,"O=C(c1ccccc1)N1CCN(C2CN(C(=O)c3ccc4c(ccn4-c4ccc(F)cc4F)c3)C2)CC1 [Cpd 579, 1-(2,4-Difluorophenyl)-5-({3-[4-(phenylcarbonyl)piperazin-1-yl]azetidin-1-yl}carbonyl)-1H-indole]"
7,140,"O=C(c1ccccc1)N1CCN(C2CN(C(=O)c3ccc(-c4ccc(C(F)(F)F)s4)cc3)C2)CC1 [Cpd 581, 1-(Phenylcarbonyl)-4-[1-({4-[5-(trifluoromethyl)thiophen-2-yl]phenyl}carbonyl)azetidin-3-yl]piperazine]"
8,128,"O=C(c1ccccc1)N1CCN(C2CN(C(=O)c3ccc4c(ccn4-c4ncccn4)c3)C2)CC1 [Cpd 595, 5-({3-[4-(Phenylcarbonyl)piperazin-1-yl]azetidin-1-yl}carbonyl)-1-pyrimidin-2-yl-1H-indole]"
9,896,O=C(c1ccc2c(c1)CCN(S(=O)(=O)C1CCCCC1)C2)N1CC(N2CCN(C(=O)c3nccs3)CC2)C1 [Cpd 906]
10,867,"O=C(c1ccc(C(F)(F)F)cc1)N1CCc2cc(C(=O)N3CC(N4CCN(C(=O)c5nccs5)CC4)C3)ccc2C1 [Cpd 907, 6-({3-[4-(1,3-Thiazol-2-ylcarbonyl)piperazin-1-yl]azetidin-1-yl}carbonyl)-2-{[4-(trifluoromethyl)phenyl]carbonyl}-1,2,3,4-tetrahydroisoquinoline]"
11,850,O=C(c1ccc2c(c1)CCN(S(=O)(=O)c1ccccc1)C2)N1CC(N2CCN(C(=O)c3nccs3)CC2)C1 [Cpd 927]
12,806,O=C(c1ccc(SCc2cccc(C(F)(F)F)c2)cc1)N1CC(N2CCN(C(=O)c3nccs3)CC2)C1 [Cpd 973]
13,570,"O=C(c1ccc2c(c1)ncn2-c1ccc(C(F)(F)F)cc1)N1CC(N2CCN(C(=O)c3nccs3)CC2)C1 [Cpd 1064, 5-({3-[4-(1,3-Thiazol-2-ylcarbonyl)piperazin-1-yl]azetidin-1-yl}carbonyl)-1-[4-(trifluoromethyl)phenyl]-1H-benzimidazole]"
14,482,"O=C(c1ccc2nc(-c3cccc(C(F)(F)F)c3)oc2c1)N1CC(N2CCN(C(=O)c3cscn3)CC2)C1 [Cpd 1151, 6-({3-[4-(1,3-Thiazol-4-ylcarbonyl)piperazin-1-yl]azetidin-1-yl}carbonyl)-2-[3-(trifluoromethyl)phenyl]-1,3-benzoxazole]"
15,839,NC(=O)c1ccc(-n2ccc3cc(C(=O)N4CC(N5CCN(C(=O)c6nccs6)CC5)C4)ccc32)cc1 [Cpd 1171]
16,393,O=C(c1ccc2c(c1)ncn2-c1ccc(F)c(F)c1)N1CC(N2CCN(C(=O)c3nccs3)CC2)C1 [Cpd 1186]

# Same assay, conditions: rat brain homogenate; compound 10 μM; 2-AG accumulation as percent of vehicle; read-out: Rat Brain 2AG % VehCntrl (%) @ 10 μM
row,"2-AG accumulation, % of vehicle control at 10 µM [%]",SMILES
1,993,"CC(C)(C)OC(=O)Nc1cccc(-c2ccc(C(=O)N3CC(N4CCN(C(=O)c5nccs5)CC4)C3)cc2)c1 [Cpd 220, tert-Butyl [4′-({3-[4-(1,3-thiazol-2-ylcarbonyl)piperazin-1-yl]azetidin-1-yl}carbonyl)biphenyl-3-yl]carbamate]"
2,945,"CC(C)COc1cccc(-c2ccc(C(=O)N3CC(N4CCN(C(=O)c5nccs5)CC4)C3)cc2)c1 [Cpd 221, 1-(1-{[3′-(2-Methylpropoxy)biphenyl-4-yl]carbonyl}azetidin-3-yl)-4-(1,3-thiazol-2-ylcarbonyl)piperazine]"
3,906,"COC(=O)C=Cc1ccc(-c2ccc(C(=O)N3CC(N4CCN(C(=O)c5nccs5)CC4)C3)cc2)cc1 [Cpd 224, Methyl 3-[4′-({3-[4-(1,3-thiazol-2-ylcarbonyl)piperazin-1-yl]azetidin-1-yl}carbonyl)biphenyl-4-yl]prop-2-enoate]"
4,567,"Nc1cccc(-c2ccc(C(=O)N3CC(N4CCN(C(=O)c5nccs5)CC4)C3)cc2)c1 [Cpd 230, 4′-({3-[4-(1,3-Thiazol-2-ylcarbonyl)piperazin-1-yl]azetidin-1-yl}carbonyl)biphenyl-3-amine]"
5,623,"O=C(CCc1ccccc1Cl)N1CC(N2CCN(C(=O)c3nccs3)CC2)C1 [Cpd 273, 1-{1-[3-(2-Chlorophenyl)propanoyl]azetidin-3-yl}-4-(1,3-thiazol-2-ylcarbonyl)piperazine]"
6,876,"O=C(CCc1c(Cl)cccc1Cl)N1CC(N2CCN(C(=O)c3nccs3)CC2)C1 [Cpd 274, 1-{1-[3-(2,6-Dichlorophenyl)propanoyl]azetidin-3-yl}-4-(1,3-thiazol-2-ylcarbonyl)piperazine]"
7,201,"O=C(CCc1ccc(Cl)c(Cl)c1)N1CC(N2CCN(C(=O)c3nccs3)CC2)C1 [Cpd 281, 1-{1-[3-(3,4-Dichlorophenyl)propanoyl]azetidin-3-yl}-4-(1,3-thiazol-2-ylcarbonyl)piperazine]"
8,605,O=C(/C=C/c1ccc(SC(F)(F)F)cc1)N1CC(N2CCN(C(=O)c3nccs3)CC2)C1 [Cpd 283]
9,814,"O=C(c1ccc2c(Br)cccc2c1)N1CC(N2CCN(C(=O)c3nccs3)CC2)C1 [Cpd 313, 1-{1-[(5-Bromonaphthalen-2-yl)carbonyl]azetidin-3-yl}-4-(1,3-thiazol-2-ylcarbonyl)piperazine]"
10,396,"CC(C)(C)OC(=O)N1CCc2cc(C(=O)N3CC(N4CCN(C(=O)c5ccccc5)CC4)C3)ccc2C1 [Cpd 319, tert-Butyl 6-({3-[4-(phenylcarbonyl)piperazin-1-yl]azetidin-1-yl}carbonyl)-3,4-dihydroisoquinoline-2(1H)-carboxylate]"
11,230,"O=C(c1ccccc1)N1CCN(C2CN(C(=O)c3ccc(Cc4ccccc4)s3)C2)CC1 [Cpd 321, 1-{1-[(5-Benzylthiophen-2-yl)carbonyl]azetidin-3-yl}-4-(phenylcarbonyl)piperazine]"
12,288,"O=C(c1ccccc1)N1CCN(C2CN(C(=O)c3cc4ccc(-c5ccccc5)cc4s3)C2)CC1 [Cpd 342, 1-{1-[(6-Phenyl-1-benzothiophen-2-yl)carbonyl]azetidin-3-yl}-4-(phenylcarbonyl)piperazine]"
13,498,"O=C(c1ccccc1)N1CCN(C2CN(C(=O)c3ccc4c(c3)CCN(C(=O)C3CCCCC3)C4)C2)CC1 [Cpd 350, 2-(Cyclohexylcarbonyl)-6-({3-[4-(phenylcarbonyl)piperazin-1-yl]azetidin-1-yl}carbonyl)-1,2,3,4-tetrahydroisoquinoline]"
14,773,"O=C(c1ccccc1)N1CCN(C2CN(C(=O)c3ccc(OCc4ccc5ccccc5c4)cc3)C2)CC1 [Cpd 380, 1-(1-{[4-(Naphthalen-2-ylmethoxy)phenyl]carbonyl}azetidin-3-yl)-4-(phenylcarbonyl)piperazine]"
15,737,"CC(C)(C)OC(=O)N1CC[C@H](Oc2ccc(C(=O)N3CC(N4CCN(C(=O)c5ccccc5)CC4)C3)cc2)C1 [Cpd 434, tert-Butyl (3S)-3-[4-({3-[4-(phenylcarbonyl)piperazin-1-yl]azetidin-1-yl}carbonyl)phenoxy]pyrrolidine-1-carboxylate]"
16,198,"O=C(c1ccccc1)N1CCN(C2CN(C(=O)c3ccc(OC4CCCCC4)cc3)C2)CC1 [Cpd 435, 1-(1-{[4-(Cyclohexyloxy)phenyl]carbonyl}azetidin-3-yl)-4-(phenylcarbonyl)piperazine]"
